The values below come from US20100311714A1, “1H-IMIDAZO[4,5-c]QUINOLINONE COMPOUNDS” (priority 2009, published 2010).

In brackets after ≈: the same amount, converted by molar mass.

Series [1] deals with PKB Ser473 phosphorylation in Rat1-myr-HA-p110 beta cells. Nature of the series: Reverse protein array, PKB Ser473 phosphorylation in Rat1-myr-HA-p110 beta cells. Format: cell-based. As to conditions: Rattus norvegicus, 0.5 h, 30 minutes compound incubation, read-out: p-PKB/IC50_beta. The procedure:
(§1) No. 15140-114) and 10 μg/ml Puromycine (Sigma, cat. No. P9620).
(§2) The Rat1-myr-HA-p110 alpha, beta and delta cells were trypsinized and counted with a CASY TT cell counter (Schärfe System GmbH, Reutlingen Germany). The cells were diluted in fresh DMEM complete medium and 3×10^4 cells/150 μl/well seeded in 96-well TPP-tissue culture plates (TPP, cat. No. 92096). The plates were incubated at 37° C. and 5% CO2 under humidified condition for at least 20 h. Compound of formula I working solutions were prepared freshly as serial 8 step dilutions (vol/vol) in DMSO on the day of the experiment. The working solutions were further diluted 1/500 in cell culture medium to get final compound concentrations of 10, 3.333, 1.111, 0.370, 0.123, 0.041, 0.014, 0.005 μM. The final DMSO concentration was kept constant at 0.2%. cell culture medium containing 0.2% DMSO was used as vehicle treatment control. Post incubation, the cells were treated with the serial compound dilution. 50 μl of the compound medium mixture was added to the wells containing cells and 150 μl DMEM medium and incubated for 30 minutes (37° C., 5% CO2). After 30 minutes of incubation, the medium mixture was quickly removed by aspiration. For cell lysis, a mixture of 10% CLB1 CeLyA lysis buffer (Zeptosens, cat. No. 9000), 90% CSBL1 CeLyA spotting buffer (Zeptosens, cat. No. 9020) was freshly prepared and supplemented with 1% Octyl β-D-glucopyranoside (SIGMA, cat. No. 08001-5G) and 1 mM Na-Orthovanadate (Sigma, cat No. S-6508). 50 μl of the described lysis buffer mix was added to each well, followed by 10 minutes of incubation on ice. After an additional freeze-thaw cycle, another 50 μl of the lysis buffer mix without Octyl β-D-glucopyranoside was added to the wells, and 90 μl of the cell lysate was transferred to a 96-well V-bottom plate (Fisher Scientific, cat. No. 6067Y), followed by a centrifugation step (5 min, 1500 rpm at 19° C. in an Eppendorf 5810R centrifuge) to remove the unlysed cell debris.
(§3) The samples were spotted onto ZeptoMARK® PWG protein microarray chips (Zeptosens, Witterswil, Switzerland) with the piezoelectric microdispense-based, non-contact Nano-Plotter 2.1 (GeSiM, Grosserkmannsdorf, Germany). Each sample was spotted at 4 different sample concentrations (d1=100%, d2=75%, d3=50%, d4=25%) by diluting the cell lysate with the corresponding volume of lysis buffer mix. After spotting the ZeptoMARK® protein microarrays, the chips are incubated for 1 hour at 37° C. To receive a uniform blocking result, the CeLyA blocking buffer BB1 (Zeptosens, cat. No. 9040) is administered via an ultrasonic nebulizer. After 20 minutes of blocking the chips are extensively rinsed with deionized water (Milli-Q quality, 18MΩ×cm) and dried in a nitrogen air flow.
(§4) After the sample spotting and blocking procedure, the ZeptoMARK® chips were transferred to the ZeptoCARRIER (Zeptosens, cat. No. 1100), whose six flow cells individually address the six arrays on a chip, and washed twice with 200 μl CAB1 CeLyA assay buffer (Zeptosens, cat. No. 9032). The assay buffer was then aspirated and each compartment incubated with 100 μl of the primary target antibody (pAkt Ser473; CST#9271) at RT over night. Post incubation, the primary antibody was removed, the arrays washed twice with CAB1 buffer and further incubated with 100 μl of Alexa fluor 647-labeled anti rabbit IgG Fab fragments (Invitrogen; #Z25305) for one hour at RT in the dark. After incubation, the arrays were washed twice with 200 μl CAB1 buffer. The fluorescence of the target-bound Fab fragments is read out on the ZeptoReader (Zeptosens, Witterswil, Switzerland) using a laser (excitation wavelength 635 nm) and a CCD camera. The fluorescence signal was assessed with exposure times of 1, 3, 5 and 10 seconds, depending on the intensity of the signal. The resulting four images taken per array are stored as 16-bit TIF files. […]

Series [2] can be described thus: Parallel Artificial Membrane Permeability Assay (PAMPA) at pH 6.8. Format: physicochemical. An excerpt:
(§5) The physicochemical properties of relevance for the absorption of the compound, such as the solubility and the membrane permeability, especially at a pH close to neutral pH can be measured using the procedure as described by L. ZHOU et al. in JOURNAL OF PHARMACEUTICAL SCIENCES, VOL. 96, NO. 11, p. 3052-3071 (2007) for the solubility at pH 6.8 and the procedure as described by F. Wohnsland and B. Faller in Journal of Medicinal Chemistry Vol 44, p. 923-930 (2001) for the Parallel Artificial Membrane Permeability Assay (PAMPA) at pH 6.8.
The following permeability log Pe was measured for compound of formula (I) as exemplified below: […]
A general note: In PAMPA a lipid-coated filter parts donor from acceptor wells.

The subject of series [3] is PKB Ser473 phosphorylation in Rat1-myr-HA-p110 delta cells. The experiment in a line: Reverse protein array, PKB Ser473 phosphorylation in Rat1-myr-HA-p110 delta cells. It is filed as cell-based. As to conditions: Rattus norvegicus, 0.5 h, 30 minutes compound incubation, read-out: p-PKB/IC50_delta. The procedure: as §1, §2, §3, §4
Series [4] deals with PKB Ser473 phosphorylation in Rat1-myr-HA-p110 alpha cells. Nature of the series: Reverse protein array, PKB Ser473 phosphorylation in Rat1-myr-HA-p110 alpha cells. It is filed as cell-based. The note with it: Rattus norvegicus, 0.5 h, 30 minutes compound incubation, read-out: p-PKB/IC50_alpha. The procedure: as §1, §2, §3, §4
Series [5] can be described thus: High-throughput equilibrium solubility at pH 6.8. Format: physicochemical. The note with it: pH 6.8, aqueous buffer, thermodynamic from solid; read-out: HT-Eq Sol/pH 6.8.
Source text: as §5

For series [6], the system named is S6 Ribosomal Protein phosphorylation Ser235/236 in TSC1 null mouse embryo fibroblast (MEF) cells. The experiment in a line: Reverse protein array, S6 Ribosomal Protein phosphorylation in TSC1 null MEF cells. It is filed as cell-based. As to conditions: 1 h, TSC1-/- MEFs, 60 minutes, read-out: p-S6 IC50. The procedure:
TSC1−/− MEFs cells (provided by D. Kwiatkowski), were cultivated in Dulbecco's modified Eagle's medium (DMEM high Glucose, GIBCO, cat. No. 41956-039) supplemented with 10% heat inactivated fetal bovine calf serum (Amimed, cat. No. 2-01F16-I), 1% L-Glutamine (Invitrogen, cat. No. 25030-02), 1% penicillin-streptomycin (GIBCO, cat. No. 15140-114) at 37° C. in a 5% CO2 and 95% relative humidity atmosphere incubator.
The TSC1−/− cells were trypsinized and counted with a CASY TT cell counter (Schärfe System GmbH, Reutlingen Germany). The cells were diluted in fresh DMEM complete medium and 0.75×10^4 cells/150 μl/well seeded in 96-well TPP-tissue culture plates (TPP, cat. No. 92096). The plates were incubated at 37° C. and 5% CO2 under humidified condition for at least 20 h. Working solutions were prepared freshly as serial 8 step dilutions (vol/vol) in DMSO on the day of the experiment. The working solutions were further diluted 1/5000 in cell culture medium to get final compound concentrations of […]. The final DMSO concentration was kept constant at 0.02%. cell culture medium containing 0.02% DMSO was used as vehicle treatment control. Post incubation, the cells were treated with the serial compound dilution. 50 μl of the compound medium mixture was added to the wells containing cells and 150 μl DMEM medium and incubated for 60 minutes (37° C., 5% CO2). After 60 minutes of incubation, the medium mixture was quickly removed by aspiration. For cell lysis, a mixture of 10% CLB1 CeLyA lysis buffer (Zeptosens, cat. No. 9000), 90% CSBL1 CeLyA spotting buffer (Zeptosens, cat. No. 9020) was freshly prepared and supplemented with 1% Octyl β-D-glucopyranoside (SIGMA, cat. No. 08001-5G) and 1 mM Na-Orthovanadate (Sigma, cat No. S-6508). 50 μl of the described lysis buffer mix was added to each well, followed by 10 minutes of incubation on ice. After an additional freeze-thaw cycle, another 50 μl of the lysis buffer mix without Octyl β-D-glucopyranoside was added to the wells, and 90 μl of the cell lysate was transferred to a 96-well V-bottom plate (Fisher Scientific, cat. No. 6067Y), followed by a centrifugation step (5 min, 1500 rpm at 19° C. in an Eppendorf 5810R centrifuge) to remove the unlysed cell debris.
The spotting of the chips follows the previous described method.
The signal detection and the data analysis follows the previous described method using the pS6 ribosomal protein Ser235/236 (CST, cat. No. #2211) as a primary antibody.

For the molecule `COCCOc1cncc(-c2ccc3ncc4c(c3c2)n(-c2cccnc2C)c(=O)n4C)c1` [Example 2.17, 8-[5-(2-Methoxy-ethoxy)-pyridin-3-yl]-3-methyl-1-(2-methyl-pyridin-3-yl)-1,3-dihydro-imidazo[4,5-c]quinolin-2-one], the IC50 was 491 nM in series [1], 803 nM in series [3] and 85.6 nM in series [4]. Further, the “HT-perm/logPe pH6.8” value in series [2] is listed as −4.8. Also, the solubility thermodynamic in series [5] was more than 441 µg/mL.

In the case of `Cc1cccnc1-n1c(=O)n(C)c2cnc3ccc(-c4cnc5[nH]ccc5c4)cc3c21` [Example 3.2, 3-Methyl-1-(3-methyl-pyridin-2-yl)-8-(1H-pyrrolo[2,3-b]pyridin-5-yl)-1,3-dihydro-imidazo[4,5-c]quinolin-2-one], the IC50 in series [1] came out at 74.1 nM; in series [3] it was 109 nM; in series [4], 58.5 nM. For the same molecule, in series [2], the “HT-perm/logPe pH6.8” value is given as −5.0. In series [5], the solubility thermodynamic was determined as 14 µg/mL (≈ 34.4 µM).

For the molecule `Cc1cccnc1-n1c(=O)n(C)c2cnc3ccc(-c4ccc(OCCCN(C)C)nc4)cc3c21` [Example 3.7, 8-[6-(3-Dimethylamino-propoxy)-pyridin-3-yl]-3-methyl-1-(3-methyl-pyridin-2-yl)-1,3-dihydro-imidazo[4,5-c]quinolin-2-one], the IC50 in series [4] amounted to 398 nM. The solubility thermodynamic in series [5] was more than 469 µg/mL.

As for `Cc1ccncc1-n1c(=O)n(C)c2cnc3ccc(-c4ccc(N(C)C)nc4)cc3c21` [Example 4.4, 8-(6-Dimethylamino-pyridin-3-yl)-3-methyl-1-(4-methyl-pyridin-3-yl)-1,3-dihydro-imidazo[4,5-c]quinolin-2-one], the results for the IC50 in series [1], in series [3] and in series [4] were 300 nM, 894 nM and 167 nM, respectively. Also, the “HT-perm/logPe pH6.8” value in series [2] is listed as −3.8. Besides, in series [5], the solubility thermodynamic turned out to be 2 µg/mL (≈ 4.87 µM).

In the case of `COc1nc(N2CCNCC2)ccc1-n1c(=O)n(C)c2cnc3ccc(-c4cnc5c(ccn5C)c4)cc3c21` [Example 9.3, 1-(2-Methoxy-6-piperazin-1-yl-pyridin-3-yl)-3-methyl-8-(1-methyl-1H-pyrrolo[2,3-b]pyridin-5-yl)-1,3-dihydro-imidazo[4,5-c]quinolin-2-one], the IC50 worked out at 9.39 nM in series [1], 52.9 nM in series [3] and 6.5 nM in series [4]. Further, the solubility thermodynamic in series [5] was found to be 21 µg/mL (≈ 40.3 µM).

With `CNc1ncc(-c2ccc3ncc4c(c3c2)n(-c2ccc(OC)nc2Cl)c(=O)n4C)cn1` [Example 18.2, 1-(2-Chloro-6-methoxy-pyridin-3-yl)-3-methyl-8-(2-methylamino-pyrimidin-5-yl)-1,3-dihydro-imidazo[4,5-c]quinolin-2-one], the IC50 in series [1] worked out at 7 nM; in series [6], 1 nM; in series [3] it was 12.2 nM; in series [4] it was 7.8 nM. Besides, in series [2], the “HT-Perm logPe pH6.8” value is recorded as −3.5. Besides, the solubility thermodynamic in series [5] worked out at 3 µg/mL (≈ 6.7 µM).
